Results on 22 molecules are retold here after patent US6426360B1, “4,5-substituted imidazolyl compounds for the treatment of inflammation” (G D Searle & Co., priority 1994, dated 2002).

For one series, the target named is T1, Human COX II (Homo sapiens, UniProt P35354).
T1 construct: A 2.0 kb fragment containing the coding region of either human or murine COX-I or human or murine COX-II; made in house; host or cells: SF9 insect cells (recombinant baculovirus, transfer vector pVL1393)
T1 sequence (P35354 18-604): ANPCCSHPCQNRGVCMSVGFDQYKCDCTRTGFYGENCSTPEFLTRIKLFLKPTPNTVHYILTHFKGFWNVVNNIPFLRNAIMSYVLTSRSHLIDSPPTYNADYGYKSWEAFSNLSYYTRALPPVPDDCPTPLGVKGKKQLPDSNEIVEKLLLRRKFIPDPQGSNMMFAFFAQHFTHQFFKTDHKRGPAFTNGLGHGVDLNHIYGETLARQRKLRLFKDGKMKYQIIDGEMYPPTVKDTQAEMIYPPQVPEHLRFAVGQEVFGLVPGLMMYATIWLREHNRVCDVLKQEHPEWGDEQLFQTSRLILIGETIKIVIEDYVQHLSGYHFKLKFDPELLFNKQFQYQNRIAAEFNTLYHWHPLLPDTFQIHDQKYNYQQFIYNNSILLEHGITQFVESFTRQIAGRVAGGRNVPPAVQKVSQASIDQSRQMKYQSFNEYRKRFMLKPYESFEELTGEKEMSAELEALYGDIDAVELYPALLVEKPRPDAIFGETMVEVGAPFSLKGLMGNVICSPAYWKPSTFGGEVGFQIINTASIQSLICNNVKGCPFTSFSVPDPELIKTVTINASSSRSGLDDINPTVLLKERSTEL
Briefly: COX II activity in vitro (PGE2 ELISA, recombinant enzyme). The series is classed as biochemical. Particulars: arachidonic acid 10 μM, pre-incubation 10-20 minutes; read-out: Human COX II ID50. As to the method: The COX II inhibition activity of the compounds of this invention illustrated in the Examples was determined by the following methods.
(§1) A 2.0 kb fragment containing the coding region of either human or murine COX-I or human or murine COX-II was cloned into a BamH1 site of the baculovirus transfer vector pVL1393 (Invitrogen) to generate the baculovirus transfer vectors for COX-I and COX-II in a manner similar to the method of D. R. O'Reilly et al (Baculovirus Expression Vectors: A Laboratory Manual (1992)). Recombinant baculoviruses were isolated by transfecting 4 μg of baculovirus transfer vector DNA into SF9 insect cells ([…]) along with 200 ng of linearized baculovirus plasmid DNA by the calcium phosphate method. See M. D. Summers and G. E. Smith, A Manual of Methods for Baculovirus Vectors and Insect Cell Culture Procedures, Texas Agric. Exp. Station Bull. 1555 (1987). Recombinant viruses were purified by three rounds of plaque purification and high titer (10E7-10E8 pfu/ml), stocks of virus were prepared. For large scale production, SF9 insect cells were infected in 10 liter fermentors (0.5×10^6/ml) with the recombinant baculovirus stock such that the multiplicity of infection was 0.1. After 72 hours the cells were centrifuged and the cell pellet homogenized in Tris/Sucrose (50 mM: 25%, pH 8.0) containing 1% 3-[(3-cholamidopropyl)dimethylammonio]-1-propanesulfonate (CHAPS). The homogenate was centrifuged at 10,000×G for 30 minutes, and the resultant supernatant was stored at −80° C. before being assayed for COX activity.
(§2) COX activity was assayed as PGE2 formed/μg protein/time using an ELISA to detect the prostaglandin released. CHAPS-solubilized insect cell membranes containing the appropriate COX enzyme were incubated in a potassium phosphate buffer (50 mM, pH 8.0) containing epinephrine, phenol, and heme with the addition of arachidonic acid (10 μM). Compounds were pre-incubated with the enzyme for 10-20 minutes prior to the addition of arachidonic acid. Any reaction between the arachidonic acid and the enzyme was stopped after ten minutes at 37° C./room temperature by transferring 40 μl of reaction mix into 160 μl ELISA buffer and 25 μM indomethacin. The PGE2 formed was measured by standard ELISA technology (Cayman Chemical).

The target in another series is T2, Human COX I (Homo sapiens, UniProt P23219).
T2 construct: A 2.0 kb fragment containing the coding region of either human or murine COX-I or human or murine COX-II; made in house; host or cells: SF9 insect cells (recombinant baculovirus, transfer vector pVL1393)
T2 sequence (P23219 24-599): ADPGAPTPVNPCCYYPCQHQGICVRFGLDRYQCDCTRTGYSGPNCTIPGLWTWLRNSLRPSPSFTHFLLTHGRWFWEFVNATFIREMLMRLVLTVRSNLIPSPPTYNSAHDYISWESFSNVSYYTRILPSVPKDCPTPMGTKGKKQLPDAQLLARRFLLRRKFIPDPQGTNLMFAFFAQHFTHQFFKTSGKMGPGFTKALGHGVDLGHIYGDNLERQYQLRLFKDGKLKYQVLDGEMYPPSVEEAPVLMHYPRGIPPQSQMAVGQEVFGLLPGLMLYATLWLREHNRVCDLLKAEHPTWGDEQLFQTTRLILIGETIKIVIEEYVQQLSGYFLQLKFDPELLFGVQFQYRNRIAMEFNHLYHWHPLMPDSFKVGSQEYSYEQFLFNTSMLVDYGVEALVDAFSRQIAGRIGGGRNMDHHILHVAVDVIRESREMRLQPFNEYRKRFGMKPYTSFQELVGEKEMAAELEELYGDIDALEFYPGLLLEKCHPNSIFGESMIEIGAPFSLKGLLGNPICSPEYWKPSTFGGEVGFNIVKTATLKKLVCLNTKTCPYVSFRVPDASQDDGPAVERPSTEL
In words: COX I activity in vitro (PGE2 ELISA, recombinant enzyme). The series is classed as biochemical. Conditions: arachidonic acid 10 μM, pre-incubation 10-20 minutes; read-out: Human COX I ID50. As to the method:
as §1, §2
(In general: In an ELISA, binding on a coated surface is turned into a signal by an enzyme label.)

Molecule `CC(C)c1nc(-c2ccc(S(C)(=O)=O)cc2)c(-c2ccc(F)cc2)[nH]1` [Example 5, 5-(4-Fluorophenyl)-2-isopropyl-4-(4-methylsulfonylphenyl)-1H-imidazole] gave a melting point of 214 to 215 °C. At Human COX II, the IC50 was determined as 1.2 µM. Also, the IC50 at Human COX I is above 100 µM.
On to `CS(=O)(=O)c1ccc(-c2nc(CO)[nH]c2-c2ccc(F)cc2)cc1` [Example 9, 5-(4-Fluorophenyl)-2-hydroxymethyl-4-[4-(methylsulfonyl)phenyl]imidazole], for which the melting point lay within 115 to 117 °C. The IC50 at Human COX II was 5.1 µM. Moreover, the IC50 at Human COX I is above 100 µM.
In turn, `CS(=O)(=O)c1ccc(-c2nc(C(F)(F)F)[nH]c2-c2ccc(Br)s2)cc1` [Example 47, 5-(5-Bromothien-2-yl)-4-[4-(methylsulfonyl)phenyl]-2-(trifluoromethyl)-1H-imidazole] gave a melting point of 261 to 262 °C. At Human COX II, the IC50 turned out to be 0.1 µM. Besides, on Human COX I, the IC50 was 12.9 µM.
The matching figures for `CN(C)c1ccc(-c2[nH]c(C(F)(F)F)nc2-c2ccc(S(C)(=O)=O)cc2)cc1` [Example 48, N,N-Dimethyl-4-[4-[4-(methylsulfonyl)phenyl]-2-(trifluoromethyl)-1H-imidazol-5-yl]benzenamine]: 248 to 251 °C, 8.7 µM and above 100 µM.
The matching figures for `CC(F)(F)c1nc(-c2ccc(F)cc2)c(-c2ccc(S(C)(=O)=O)cc2)[nH]1` [Example 95, 2-(1,1-Difluoroethyl)-4-(4-fluorophenyl)-5-[4-(methyl-sulfonyl)phenyl]-1H-imidazole]: 211 °C, 2.4 µM and above 100 µM.
Turning to `CS(=O)(=O)c1ccc(-c2[nH]c(C(=O)C(F)(F)F)nc2-c2ccc(F)cc2)cc1` [Example 89], the melting point was 291.7 °C. Also, at Human COX II, the IC50 is 5.3 µM. The IC50 on Human COX I is above 100 µM.
`CS(=O)(=O)c1ccc(-c2[nH]c(C(O)C(F)(F)F)nc2-c2ccc(F)cc2)cc1` (centres unmarked) [Example 90, 4-(4-Fluorophenyl)-5-(4-(methylsulfonyl)phenyl]-a-(trifluoromethyl)-1H-imidazole-2-methanol] registered a melting point of 126 to 130 °C. Besides, on Human COX II, the IC50 was 3.9 µM. Further, the IC50 at Human COX I is above 100 µM.
With `CS(=O)(=O)c1ccc(-c2[nH]c(SCc3ccc4ccccc4n3)nc2-c2ccc(F)cc2)cc1` [Example 50, 2-[[[4-(4-Fluorophenyl)-5-[4-(methylsulfonyl)phenyl]-1H-imidazol-2-yl]thio]methyl]quinoline], the melting point lay within 179 to 182 °C. On Human COX II, the IC50 is 1.5 µM. For the same molecule, the IC50 on Human COX I was above 100 µM.
The molecule `CS(=O)(=O)c1ccc(-c2nc(C(F)(F)F)[nH]c2C2CCCCCC2)cc1` [Example 72, 5-[4-Cycloheptyl)-4-[4-(methylsulfonyl)phenyl]-2-(trifluoromethyl)-1H-imidazole] gave a melting point of 206 to 207 °C. At Human COX II, the IC50 is 3 µM. The IC50 on Human COX I is above 100 µM.
Regarding `Cc1ccc(-c2[nH]c(C(F)(F)F)nc2-c2ccc(S(C)(=O)=O)cc2)cc1` [Example 16, 5-(4-Methylphenyl)-4-[4-(methylsulfonyl)phenyl]-2-(trifluoromethyl)-1H-imidazole], the melting point fell in the range of 234 to 238 °C. Also, the IC50 on Human COX II came to 0.6 µM. Besides, the IC50 on Human COX I turned out to be 20 µM.
The molecule `CS(=O)(=O)c1ccc(-c2nc(C(F)(F)F)[nH]c2-c2ccccc2)cc1` [Example 19, 4-[4-(Methylsulfonyl)phenyl]-5-phenyl-2-(trifluoromethyl)-1H-imidazole] showed a melting point of 228 to 230 °C. For the same molecule, the IC50 on Human COX II was determined as 0.5 µM. Moreover, at Human COX I, the IC50 was above 100 µM.
Turning to `CS(=O)(=O)c1ccc(-c2nc(-c3cc4ccccc4o3)[nH]c2-c2ccc(F)cc2)cc1` [Example 4, 2-(2-Benzofuryl)-5-(4-fluorophenyl)-4-(4-methylsulfonylphenyl)-1H-imidazole], the melting point fell in the range of 235 to 237 °C. In addition, the IC50 at Human COX II is 0.5 µM. Also, on Human COX I, the IC50 was above 100 µM.
Turning to `CS(=O)(=O)c1ccc(-c2[nH]c(C(=O)CCc3ccccc3)nc2-c2ccc(F)cc2)cc1` [Example 85], the melting point lay within 227 to 231 °C. Further, the IC50 on Human COX II is 0.4 µM. The IC50 at Human COX I was above 100 µM.
The matching figures for `CC(=O)c1nc(-c2ccc(F)cc2)c(-c2ccc(S(C)(=O)=O)cc2)[nH]1` [Example 83, 1-[4-(4-Fluorophenyl)-5-[4-(methylsulfonyl)phenyl]-1H-imidazol-2-yl] ethanone]: 215 to 217 °C, 4.3 µM and above 100 µM.
`CS(=O)(=O)c1ccc(-c2nc(COc3ccccc3)[nH]c2-c2ccc(F)cc2)cc1` [Example 2, 5-(4-Fluorophenyl)-4-(4-methylsulfonylphenyl)-2-phenoxymethyl-1H-imidazole] returned a melting point of 189 to 190 °C. Further, the IC50 at Human COX II was 0.2 µM. The IC50 on Human COX I was above 100 µM.
On to `CS(=O)(=O)c1ccc(-c2[nH]c(S(=O)(=O)Cc3ccccc3)nc2-c2ccc(F)cc2)cc1` [Example 51, 4-(4-Fluorophenyl)-5-[4-(methylsulfonyl)phenyl]-2-[(phenylmethyl)sulfonyl]-1H-imidazole], for which the melting point was in the range of 211 to 213 °C. Moreover, the IC50 on Human COX II is 1.7 µM. Besides, the IC50 at Human COX I is above 100 µM.
As for `COCc1nc(-c2ccc(S(C)(=O)=O)cc2)c(-c2ccc(F)cc2)[nH]1` [Example 79, 5-(4-Fluorophenyl)-2-(methoxymethyl)-4-[4-(methylsulfonyl)-phenyl]-1H-imidazole], the melting point was 169 °C. The IC50 on Human COX II is 8.3 µM. On Human COX I, the IC50 was above 100 µM.
`CS(=O)(=O)c1ccc(-c2[nH]c(S)nc2-c2ccc(F)cc2)cc1` [Example 49, 4-(4-Fluorophenyl)-5-[4-(methylsulfonyl)phenyl]-1H-imidazole-2-thiol] had a melting point of 158 to 161 °C. At Human COX II, the IC50 was 55 µM. Besides, the IC50 at Human COX I was 10.8 µM.
As for `CC(O)(c1nc(-c2ccc(F)cc2)c(-c2ccc(S(C)(=O)=O)cc2)[nH]1)C(F)(F)F` (stereo not drawn) [Example 91, 4-(4-Fluorophenyl)-α-methyl-5-[4-(methylsulfonyl)phenyl]-α-(trifluoromethyl)-1H-imidazole-2-methanol], the figures for the IC50 at Human COX II and at Human COX I were 5.9 µM and above 100 µM, respectively.
As for `Cn1c(C(F)(F)F)nc(-c2ccc(S(C)(=O)=O)cc2)c1-c1ccc(F)cc1` [Example 44, 5-(4-Fluorophenyl)-1-methyl-4-[4-(methylsulfonyl)phenyl]-2-(trifluoromethyl)-1H-imidazole], the values for the IC50 on Human COX II and on Human COX I were 12.8 µM and above 100 µM, respectively.
In the case of `Cc1cccc(-c2[nH]c(C(F)(F)F)nc2-c2ccc(S(N)(=O)=O)cc2)c1` [Example 60, 5-(3-Methylphenyl)-4-[4-(sulfonamido)phenyl]-2-trifluoromethyl-1H-imidazole], the results for the IC50 at Human COX II and on Human COX I were 0.1 µM and 6.2 µM, respectively.
`C=CCOCc1nc(-c2ccc(F)cc2)c(-c2ccc(S(C)(=O)=O)cc2)[nH]1` [Example 80, 4-(4-Fluorophenyl)-5-[4-(methylsulfonyl)phenyl]-2-[(2-propenyloxy)methyl]-1H-imidazole]: the values for the IC50 on Human COX II and at Human COX I were 2.9 µM and above 100 µM, respectively.

As usually defined, the melting point is the temperature of the solid-liquid transition.
